Laboratory results as given in paper PMC5384453, “A multi-functional PEGylated gold(III) compound: potent anti-cancer properties and self-assembly into nanostructures for drug co-delivery” (Chemical Science, 2016).
Where two headings read alike, the source gives them in different places.

Assays:
HCT116 = assay: In vitro cytotoxicity, MTT assay; assay type: cell-based, human; conditions: HCT116, MTT assay, 72 h incubation
Experimental: (§2) In vitro cytotoxicity assays. HeLa, NCI-H460, HCT116, A2780, A2780cis and
(§3) cells), respectively, were seeded in 96-well plates for 24 h. The cells were then treated with a serial concentration of gold(III) complexes and incubated at 37 °C under a 5% CO2 atmosphere for 72 h. For nanostructures of 1, 2 and NC1, they were dissolved in
(§4) cisplatin were dissolved in culture medium-DMSO solution mixture (99:1, v/v).

CCD-19Lu = assay: In vitro cytotoxicity, MTT assay; assay type: cell-based, human; conditions: 72 h incubation
Experimental: as §2, §3, §4

A2780cis = assay: In vitro cytotoxicity, MTT assay; assay type: cell-based, human; conditions: for IC50: A2780cis, MTT assay, 72 h incubation; for Resistance found in A2780cis: IC50 of A2780cis cells / IC50 of A2780 cells
Experimental: as §2, §3, §4

HeLa = assay: In vitro cytotoxicity, MTT assay; assay type: cell-based, human; conditions: HeLa
Experimental: as §2, §3, §4

A2780adr = assay: In vitro cytotoxicity, MTT assay; assay type: cell-based, human; conditions: for IC50: A2780adr; for Resistance found in A2780adr: IC50 of A2780adr cells / IC50 of A2780 cells
Experimental: as §2, §3, §4

NCM460 = assay: In vitro cytotoxicity, MTT assay; assay type: cell-based, human; conditions: 72 h incubation
Experimental: as §2, §3, §4

CHEM-5 = assay: In vitro cytotoxicity, MTT assay; assay type: cell-based, human; conditions: CHEM-5, MTT assay, 72 h
Experimental: (§1) page 7: The gold content of the nanocomposites was determined by dissolving the nanocomposites in conc. HNO3 / conc. HCl solution mixture (9:1, v/v; 30 µL), followed by ICP-MS analysis. […] The nanocomposite (10 µL) was dissolved in acetonitrile (90 µL), and subjected to gentle shaking overnight. The solution mixture was then dried under vacuum, and re- dispersed in 0.1 vol% formic acid in water/acetonitrile (7/3, v/v; 1 mL) solution mixture. […] The mobile phase was 0.1 vol% formic acid in water/acetonitrile (7:3, v/v) solution mixture. […] The cells were then treated with a serial concentration of gold(III) complexes and incubated at 37 °C under a 5% CO2 atmosphere for 72 h. […] After incubation for 72 h, MTT in PBS solution (5 mg/mL, 10 μL) was added to each well. The plates were incubated at 37 °C under a 5% CO2 atmosphere for another 4 h, and the cells were lysed by the addition of SDS solution (10%, w/w) with 0.01 M HCl (100 μL). After incubation in dark at 37 °C overnight, the cell viability after treatment was determined by a microtitre plate reader monitoring at the absorbance at 590 nm, P.7 page 8: which reflected the amount of blue formazan formed. IC50 values were then determined by CompuSyn S6 from three independent measurements. Study on the release of hydrolyzed product from 1 and 2 in aqueous buffer solutions by ICP-MS. […] At a predetermined time, an aliquot of solution was removed and dissolved in HNO3/HCl solution mixture (9:1, v/v; volume of aliquot: volume of acid mixture = 1:3). The solution mixture was heated at 65 °C with shaking overnight, and the gold content was determined by ICP-MS from three independent aliquots. […] 37 °C for 24 h. […] Analysis of cell lysate of HCT116 cells treated with complexes 1 and 3 by UPLC- QTOF-MS. […] All the cells were harvested, washed with PBS solution for three times and dispersed in ice-cold water. The cell suspension was then added to ice-cold acetonitrile (1:3, v/v), vortexed for 5 min, and centrifuged at 10,000 rpm at 4 °C. The supernatant was collected, dried under vacuum and the solid was re-dissolved in acetonitrile (HPLC grade) for UPLC- QTOF-MS experiments. The mobile phase was a mixture of 0.1% formic acid in water (phase A) and 0.1% formic acid in acetonitrile (phase B). […] P.46

L02 = assay: In vitro cytotoxicity, MTT assay; assay type: cell-based, human; conditions: 72 h
Experimental: as §1

NCI-H460 = assay: In vitro cytotoxicity, MTT assay; assay type: cell-based, human; conditions: NCI-H460, MTT assay, 72 h incubation
Experimental: as §2, §3, §4

A2780 = assay: In vitro cytotoxicity, MTT assay; assay type: cell-based, human; conditions: A2780, MTT assay, 72 h incubation
Experimental: as §2, §3, §4

MIHA = assay: In vitro cytotoxicity, MTT assay; assay type: cell-based
Experimental: as §2, §3, §4

HCT116 cells = assay: Time-dependent induction of apoptosis, Caspase-3/7 Green ReadyProbes fluorescence microscopy; assay type: cell-based, human; conditions: HCT116, NC1 ([1] = 3.5 μM and [DOX] = 0.5 μM) or DOX alone (0.5 μM), Caspase-3/7 Green Reagent
Experimental: B from 20.1 to 25 min and returned to initial conditions and equilibrated for 3 minutes.
The flow rate was 0.4 mL/min and the injection volume was 2 µL. The UPLC-QTOF-MS chromatograms of 1, 3, 4 and solvent control in acetonitrile were also recorded for the interpretation of UPLC-QTOF-MS chromatograms of the cell lysate.
Cellular uptake experiments. HCT116, A2780 and A2780adr (2×10 5 cells), and MIHA and NCM460 (3.5×10 5 cells) cells were grown on 6-well plates at 37 °C under an atmosphere of 5% CO2 for 48 h. The culture medium was then removed, washed with PBS solution, and incubated with culture medium containing nanostructures of 1 […]
Au1a (2 µM; with 1 vol% DMSO). At a predetermined time, the culture medium was removed and washed with PBS solution for three times. The cells were then harvested and dispersed in ice-cold water. An aliquot of the cell suspension was subjected to Bio-rad protein assay with a microtitre plate reader at the absorbance at 595 nm, using bovine serum albumin as the protein standard. […] The solution mixture was heated at 65 °C with shaking overnight, and the gold content was determined by ICP-MS. […]
then removed and washed with PBS solution. The cells were then incubated with culture medium containing nanostructures of 1 (2 µM) and CellEvent Caspase-3/7 Green ReadyProbes Reagent (30 µL), or Au1a (2 µM; with 1 vol% DMSO) and CellEvent Caspase-3/7 Green ReadyProbes Reagent (30 µL) at 37 °C under an atmosphere of 5% CO2. Fluorescence images at different time intervals were recorded by the fluorescence microscope without washing the cells. […]
once every 2–3 days. The tumor volume was calculated by the equation: Volume (mm3) = l×w2/2, where l and w were the length and width of the tumor. At the end of the treatment, the nude mice were sacrificed and the tumor weight was measured. […]
At a predetermined time, the culture medium was removed and washed with PBS solution for three times. […] An aliquot of the cell suspension was subjected to Bio-rad protein assay with a microtitre plate reader at the absorbance at 595 nm, using bovine serum albumin as the protein standard. […]

[1] = MTT assay, 72 h incubation, read-out: IC50
[2] = 72 h, read-out: Total dose at IC50

| Structure (SMILES) | IC50 (HCT116) | IC50 (CCD-19Lu) | IC50 (A2780cis) | Resistance found in A2780cis (A2780cis) | IC50 (HeLa; [1]) | IC50 (A2780adr; [1]) | Resistance found in A2780adr (A2780adr) | IC50 (NCM460) | IC50 (CHEM-5) | IC50 (L02) | IC50 (NCI-H460) | IC50 (A2780) | IC50 (MIHA; [1]) | IC50 (HeLa; [2]) | IC50 (HeLa; read-out: DOX at IC50, 72 h) | incubation time for induction of apoptosis (HCT116 cells) | IC50 (A2780adr; [2]) | IC50 (A2780adr; read-out: DOX at IC50, 72 h) | IC50 (MIHA; [2]) | IC50 (MIHA; read-out: DOX at IC50, 72 h) |
| --- | --- | --- | --- | --- | --- | --- | --- | --- | --- | --- | --- | --- | --- | --- | --- | --- | --- | --- | --- | --- |
| N.N.[Cl][Pt][Cl] [Cisplatin, cisplatin, reference compound] | 15.7 ± 2.2 µM | 49.1 ± 5.43 µM | 8.36 ± 0.05 µM | 3.23 | 19.8 ± 1.42 µM | 12.7 ± 1.83 µM | 5 | 12.3 ± 0.87 µM | 13 ± 0.2 µM | 5.9 ± 0.02 µM | 65.4 ± 5.06 µM | 2.59 ± 0.3 µM | 17.6 ± 1.31 µM |  |  |  |  |  |  |  |
| COc1cccc2c1C(=O)c1c(O)c3c(c(O)c1C2=O)C[C@@](O)(C(=O)CO)C[C@@H]3O[C@H]1C[C@H](N)[C@H](O)[C@H](C)O1 [DOX, Doxorubicin, reference compound] | 0.14 ± 0.02 µM |  | 0.05 ± 0.01 µM | 1.20 | 0.57 ± 0.06 µM | 0.68 ± 0.05 µM | 14.3 |  |  |  | 0.04 ± 0.01 µM | 0.05 ± 0.01 µM | 0.1 ± 0.01 µM | 0.57 µM | 0.57 µM | 30 h | 0.68 µM | 0.68 µM | 0.1 µM | 0.1 µM |
